Measurements: US7314861B2, “Melanin-concentrating hormone analogs” (priority 2001, dated 2008)
Where a SMILES comes first, the peptide text is derived from it. Bridges are numbered along the chain shown (N, C = ends).

Experiments:
human MCH-2R = human MCH-2R (Homo sapiens, UniProt Q969V1); assay: Radiolabeled MCH-R binding assay (SPA based), MCH-2R; conditions: MCH-2R IC50 (nM), Table 3
Protocol: (§1) Cell membranes were prepared on ice. Each T-75 flask was rinsed twice with 10 ml of Enzyme-free Cell Dissociation Buffer (Specialty Media, Lavallette, N.J.), and the cell monolayer was detached in an additional 10 ml of Enzyme-free Cell Dissociation Buffer by incubation at room temperature for 10 minutes. Dissociated cells were centrifuged (500×g for 10 minutes at 4° C.), resuspended in 5 ml homogenization buffer (10 mM Tris-HCl, pH 7.4, 0.01 mM Pefabloc, 10 μM phosphoramidon, 40 μg/ml bacitracin) and then homogenized using a glass homogenizer (10-15 strokes). The homogenate was centrifuged for 10 minutes (1,000×g at 4° C.). The resulting supernatant was then centrifuged at 38,700×g for 15 minutes at 4° C. Pelleted membranes were resuspended (passed through 25 gauge needle 5 times), snap-frozen on liquid nitrogen, and stored at −80° C. until use.
(§2) For the SPA-based assay, WGA-PVT beads (NEN Life Sciences Products) were resuspended in Dulbecco's PBS with calcium and magnesium (500 mg beads in 4 ml PBS). […] The suspension was mixed gently for 20 minutes, 12.3 ml of assay buffer and protease inhibitors were added (final concentration given): 2 μg/ml leupeptin, 10 μM phosphoramidon, 40 μg/ml bacitracin, 5 μg/ml aprotinin, 0.1 mM Pefabloc.
(§3) Coated beads were kept on ice until use. […] Binding reactions were allowed to proceed at room temperature for 3 hours. Quantitation was performed by scintillation counting (TopCount device).

human MCH-R2 = human MCH-R2 (Homo sapiens, UniProt Q969V1); assay: Aequorin bioluminescence functional assay, MCH-2R; conditions: Table 3; % Activation at 10 μM, aequorin functional assay
Protocol: (§4) The aequorin bioluminescence assay can be used to measure the activity of G protein-coupled receptors that couple through the Gα protein subunit family consisting of Gq and G11. Such coupling leads to phospholipase C activation, intracellular calcium mobilization and protein kinase C activation.
(§5) Following approximately 40 hours of expression the apo-aequorin in the cells was charged for 4 hours with coelenterazine (10 μM) under reducing conditions (300 μM reduced glutathione) in ECB buffer (140 mM NaCl, 20 mM KCl, 20 mM HEPES-NaOH [pH=7.4], 5 mM glucose, 1 mM MgCl2, 1 mM CaCl2, 0.1 mg/ml bovine serum albumin).
(§6) The cells were harvested, washed once in ECB medium and resuspended to 500,000 cells/ml. 100 μl of cell suspension (corresponding to 5×10^4 cells) was then injected into the test plate containing MCH or MCH analogs, and the integrated light emission was recorded over 30 seconds, in 0.5 second units. 20 μL of lysis buffer (0.1% final Triton X-100 concentration) was then injected and the integrated light emission recorded over 10 seconds, in 0.5 second units. The “fractional response” values for each well were calculated by taking the ratio of the integrated response to the initial challenge to the total integrated luminescence including the Triton X-100 lysis response.

human MCH-1R [1] = target: T1, human MCH-1R (Homo sapiens, UniProt Q99705); assay: Radiolabeled MCH-R binding assay (SPA based), MCH-1R
Protocol: as §1, §2, §3

human MCH-1R [2] = target: T1, human MCH-1R; assay: Aequorin bioluminescence functional assay, MCH-1R; conditions: Table 3; % Activation at 10 μM, aequorin functional assay
Protocol: as §4, §5, §6

T1 sequence (Q99705 whole entry): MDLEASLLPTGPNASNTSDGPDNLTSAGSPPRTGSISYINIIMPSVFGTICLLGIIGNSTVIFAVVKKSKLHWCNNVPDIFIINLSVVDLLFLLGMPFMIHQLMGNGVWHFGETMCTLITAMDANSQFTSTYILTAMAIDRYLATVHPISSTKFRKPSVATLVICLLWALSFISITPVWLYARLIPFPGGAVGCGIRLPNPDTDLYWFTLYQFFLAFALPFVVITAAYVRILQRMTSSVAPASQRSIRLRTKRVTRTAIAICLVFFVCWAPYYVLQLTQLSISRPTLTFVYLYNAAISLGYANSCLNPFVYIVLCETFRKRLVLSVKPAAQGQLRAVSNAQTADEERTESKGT
Chain of human MCH-R2 (Q969V1 whole entry): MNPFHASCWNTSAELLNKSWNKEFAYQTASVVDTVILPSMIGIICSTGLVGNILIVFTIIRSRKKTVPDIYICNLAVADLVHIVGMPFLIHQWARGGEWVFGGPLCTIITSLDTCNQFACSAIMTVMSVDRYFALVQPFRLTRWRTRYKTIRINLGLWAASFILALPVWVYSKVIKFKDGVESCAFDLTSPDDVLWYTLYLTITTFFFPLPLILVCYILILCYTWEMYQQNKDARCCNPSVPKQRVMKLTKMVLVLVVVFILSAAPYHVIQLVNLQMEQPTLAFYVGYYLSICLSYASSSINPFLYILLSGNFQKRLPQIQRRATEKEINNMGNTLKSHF
Chain of human MCH-2R (Q969V1 whole entry): as above

Compound	IC50 (human MCH-2R)	MCH-2R Activation % (human MCH-R2)	IC50 (human MCH-1R [1])	MCH-1R Activation % (human MCH-1R [2])
CSCC[C@H](NC(=O)[C@H](CC(=O)O)NC(=O)[C@H](Cc1ccccc1)NC(=O)[C@@H](N)CC(=O)O)C(=O)N[C@@H](C)C(=O)N[C@@H](CCCNC(=N)N)C(=O)N[C@H]1CSSC[C@@H](C(=O)N[C@@H](Cc2c[nH]c3ccccc23)C(=O)N[C@@H](CCC(N)=O)C(=O)N[C@H](C(=O)O)C(C)C)NC(=O)[C@@H]2CCCN2C(=O)[C@H](CCCNC(=N)N)NC(=O)[C@H](Cc2ccc(O)cc2)NC(=O)[C@H](C(C)C)NC(=O)[C@H](CCCNC(=N)N)NC(=O)CNC(=O)[C@H](CC(C)C)NC(=O)[C@H](CCSC)NC1=O [compound 45] (H-DFDMARCMLGRVYRPCWQV-OH; disulfide 7-16; N-terminus and C-terminus assumed)	2 nM	94%	0.3 nM	96%
CSCC[C@@H]1NC(=O)[C@@H](NC(=O)[C@H](CCCNC(=N)N)NC(=O)[C@H](CC(C)C)NC(=O)[C@H](CCSC)NC(=O)[C@H](CC(=O)O)NC(=O)[C@H](Cc2ccccc2)NC(=O)[C@@H](N)CC(=O)O)CSSC[C@@H](C(=O)N[C@@H](Cc2c[nH]c3ccccc23)C(=O)N[C@@H](CCC(N)=O)C(=O)N[C@H](C(=O)O)C(C)C)NC(=O)[C@@H]2CCCN2C(=O)[C@H](CCCNC(=N)N)NC(=O)[C@H](Cc2ccc(O)cc2)NC(=O)[C@H](C(C)C)NC(=O)[C@H](CCCNC(=N)N)NC(=O)CNC(=O)[C@H](C)NC1=O [compound 48] (H-DFDMLRCMAGRVYRPCWQV-OH; disulfide 7-16; N-terminus and C-terminus assumed)	9.5 nM	92%	0.9 nM	96%
